Patent US20090149662A1, “PROCESSES FOR PREPARING ZAFIRLUKAST” (priority 2007, published 2009)

Assay: Stability studies of amorphous zafirlukast under storage/stress conditions (XRD)
Type: physicochemical
Description: A sample of amorphous zafirlukast prepared using the above process was subjected to different conditions to determine the stability of the mixture under stress conditions.
The sample was packed in a clear polyethylene bag, tied with a tag, placed in a black polyethylene bag along with a silica pouch, which was filled with nitrogen, then sealed in a triple laminated bag, and finally sealed and stored in an HDPE drum.

Measured: Solid-form stability (XRD spectra) after storage

4-(5-cyclopentyloxy-carbonylamino-1-methyl-indol-3-ylmethyl)-3-methoxy-N-O-tolylsulfonylbenzamide [Amorphous form]
No change in XRD spectra: Long-term storage for 3 months, packed in polyethylene bags with silica pouch under nitrogen, triple laminated bag, HDPE drum | Storage at 25 + 5 C. and 60 + 5% RH, same packing | Storage at 40 + 5 C. and 70 + 5% RH, same packing
